Reference: patent US7001600B1, “Identification of TRP-2 as a human tumor antigen recognized by cytotoxic T lymphocytes” (The United States of America as represented by the …, priority 1996, dated 2006)
Entries after “also recorded” stand apart in the source; their conditions may differ.

How the values were obtained:
Type in all cases: cell-based, human
CTL clone 4 (TRP-2) [1] = assay: GM-CSF secretion assay: CTL clone 4 co-incubated with peptide-pulsed target cells; conditions: for CTL clone 4 GM-CSF release: 586EBV cells pulsed with peptide at 0.5-g/ml for 90 min, in pg/mL
Source text: (§1) The T cell clones were generated by limiting dilution methods (at 1 cells/well) from the TIL586 cell line, and used allogenic PBL (1×10^3 cells/well) as feeder cells in RPMI1640 containing 10% human AB sera and 500 IU IL-2. After 12 days, T cell clones were then expanded in AIM-V medium containing 6000 IU/ml IL-2. To obtain an optimal expansion, we used the OKT3 expansion method described by S. Riddell (Walter et al. (1995)). Briefly, on day 0, 5×10^4 5×10^5 T cells were cocultured with HLA-A31 PBL (500:1, PBL: T cell ratio) and 586EBV B cells (100: 1, EBV: T cell ratio) in 25 ml RPMI 1640 containing 11% human sera, 30 ng/ml OKT3 antibody and antibiotics. On day 1, IL-2 was added at final concentration of 180 IU/ml. The media were changed with fresh media containing 11% human sera, IL-2 180 IU/ml on day 5. The media were then changed every three days. On day 12–14, T cells were harvested, counted and cryopreserved. TIL586 were isolated from the tumor specimen of a patient with metastatic melanoma and grown in medium containing IL-2 (6000 IU/ml) (Chiron) for 32–60 days as previously described [Topalian et al. 1988). TIL586 were predominantly CD8+ T cells. DNA transfection and GM-CSF assays were performed as previously described (Wang et al. 1995). Briefly, 200 ng of DNA encoding antigens and 50 ng of the HLA-A31 DNA were mixed with 2 μl of lipofectamine in […] of DMEM for 15–45 min. The DNA/lipofectamine mixture was then added to the COS-7 (5×104) cells and incubated overnight. The following day, cells were washed twice with DMEM medium. TIL586 was added at a concentration of 1×10^5 cells/well in AIM-V medium containing 120 IU/ml of IL-2. For T cell clones, only 1–2×10^4 cells/well were added. After 18–24 h incubation, 100 μl of supernatant was collected and GM-CSF was measured in a standard ELISA assay (R+D^− Systems, Minneapolis, Minn.). For testing peptides recognition, 586EBV or T2 cells were incubated with peptides at 37° C. for 90 min, and then washed three times with AIM-V medium containing 120 IU/ml of IL-2. T cells were added and incubated for an additional 18–24 h, 100 μl of supernatant was collected for GM-CSF assay.

CTL clone 1 (TRP-1) [2] = assay: GM-CSF secretion assay: CTL clone 1 (TIL586-C1) co-incubated with peptide-pulsed target cells
Source text: as §1

CTL clone 4 = assay: Cytotoxicity assay (Calcein AM): lysis of peptide-pulsed target cells by CTL clone 4; conditions: for lysis of peptide-pulsed 586EBV B cells by CTL clone 4 (in words): different E:T ratios, peptide pulsed 90 min
Procedure: Cytolysis was determined by use of Calcein AM (Molecular Probes, Eugene, Oreg.). Briefly, T2 or 586EBV B cells were pulsed with peptides in RPMI1640/5% FCS for 90 min. Tumor cells and the peptide pulsed EBV B cells were labelled with Calcein AM (15 μl of 1 mg/ml Calcein AM for every 1×10^6 cells) for 30 min at 37. C. Following incubation, cells were washed three times with AIM V/120 IU IL-2. 1×10^3 target cells were mixed with T cells at various E:T ratio. After 4 h incubation at 37° C., 5 μl of bovine hemoglobin quench solution containing ethidium bromide was added. The plate was read by Lambda scan. The percentage of lysis was calculated from the following equation: [1−(A−B)/(C−B)]×100 where A is the reading of non-lysed cells in the presence of T cells, B is background signal value and C is the maximum signal value from target cells.

CTL clone 4 (TRP-2) [3] = assay: GM-CSF secretion assay: CTL clone 4 co-incubated with peptide-pulsed target cells; conditions: 1510EBV (HLA-A31+) cells pulsed with peptide at 1-g/ml for 90 min
CTL clone 1 (TRP-1) [4] = assay: GM-CSF secretion assay: CTL clone 1 (TIL586-C1) co-incubated with peptide-pulsed target cells; conditions: 1510EBV (HLA-A31+) cells pulsed with peptide at 1-g/ml for 90 min
[5] = peptide pulsed on 586EBV B cells
[6] = 586EBV (HLA-A31+) cells pulsed with peptide at 1-g/ml for 90 min, T cells alone subtracted
[7] = T2 (HLA-A31 negative) cells pulsed with peptide at 1-g/ml for 90 min
[8] = 586EBV B cells pulsed with peptide, E:T ratio 40:1, 4 h
[9] = titration, peptide pulsed on 586EBV B cells

Sequence: LAGPGRPYR
- CTL clone 4 GM-CSF release (CTL clone 4 (TRP-2) [1]; T cells alone subtracted): 550

Sequence: LLFPGRPYR
- CTL clone 4 GM-CSF release (CTL clone 4 (TRP-2) [1]; T cells alone subtracted): <50

Sequence: TLLGPGRPYR [10mer extended byone amino acid at the N-terminus of TRP 197-205]
- CTL clone 4 GM-CSF release (CTL clone 4 (TRP-2) [1]; T cells alone subtracted): 2100
- reactivity (GM-CSF release, CTL clone 4) relative to the parental 9mer LLGPGRPYR (CTL clone 4 (TRP-2) [1]; [5]): about 60%

Sequence: FVWLHYYSVR [TRP185–194, synthetic TRP-2 peptide]
- GSM-CSF release CTL clone 1 (TRP-1) (CTL clone 1 (TRP-1) [2]; [6]): < 50 pg/mL
- GSM-CSF release CTL clone 4 (TRP-2) (CTL clone 4 (TRP-2) [1]; [6]): < 50 pg/mL

Sequence: LLAPGRPYR
- CTL clone 4 GM-CSF release (CTL clone 4 (TRP-2) [1]; T cells alone subtracted): <50

Sequence: ALGPGRPYR
- CTL clone 4 GM-CSF release (CTL clone 4 (TRP-2) [1]; T cells alone subtracted): <50

Sequence: LLGPGKPYR
- CTL clone 4 GM-CSF release (CTL clone 4 (TRP-2) [1]; T cells alone subtracted): 321

Sequence: LLGPGRPYRA
- CTL clone 4 GM-CSF release (CTL clone 4 (TRP-2) [1]; T cells alone subtracted): 545

Sequence: RLGPGRPYR
- CTL clone 4 GM-CSF release (CTL clone 4 (TRP-2) [1]; T cells alone subtracted): <50

Sequence: KLGPGRPYR
- CTL clone 4 GM-CSF release (CTL clone 4 (TRP-2) [1]; T cells alone subtracted): 420

Sequence: LLGPGFPYR
- CTL clone 4 GM-CSF release (CTL clone 4 (TRP-2) [1]; T cells alone subtracted): 738

Sequence: VWLHYYSVR [TRP186–194, synthetic TRP-2 peptide]
- GSM-CSF release CTL clone 1 (TRP-1) (CTL clone 1 (TRP-1) [2]; [6]): < 50 pg/mL
- GSM-CSF release CTL clone 4 (TRP-2) (CTL clone 4 (TRP-2) [1]; [6]): < 50 pg/mL

Sequence: LLGPGRPYK
- CTL clone 4 GM-CSF release (CTL clone 4 (TRP-2) [1]; T cells alone subtracted): 2000

Sequence: LLGPGRPYH
- CTL clone 4 GM-CSF release (CTL clone 4 (TRP-2) [1]; T cells alone subtracted): <50

Sequence: MSLQRQFLR [ORF3P, control peptide derived from the alternative open reading frame of the TRP-1 gene, reference compound]
- GSM-CSF release CTL clone 1 (TRP-1) (CTL clone 1 (TRP-1) [2]; [6]): > 8000 pg/mL
- GSM-CSF release CTL clone 1 (TRP-1) (CTL clone 1 (TRP-1) [2]; [7]): < 50 pg/mL
- lysis of peptide-pulsed 586EBV B cells by CTL clone 4 (in words) (CTL clone 4): failed to lyse
- GSM-CSF release CTL clone 4 (TRP-2) (CTL clone 4 (TRP-2) [3]): < 50 pg/mL
- GSM-CSF release CTL clone 4 (TRP-2) (CTL clone 4 (TRP-2) [1]; [6]): < 50 pg/mL
- GSM-CSF release CTL clone 4 (TRP-2) (CTL clone 4 (TRP-2) [1]; [7]): < 50 pg/mL
- GSM-CSF release CTL clone 1 (TRP-1) (CTL clone 1 (TRP-1) [4]): > 6000 pg/mL

Sequence: LIGPGRPYR
- CTL clone 4 GM-CSF release (CTL clone 4 (TRP-2) [1]; T cells alone subtracted): 2545

Sequence: LFGPGRPYR
- CTL clone 4 GM-CSF release (CTL clone 4 (TRP-2) [1]; T cells alone subtracted): <50

Sequence: LVGPGRPYR
- CTL clone 4 GM-CSF release (CTL clone 4 (TRP-2) [1]; T cells alone subtracted): 2100

Sequence: LLGPGVPYR
- CTL clone 4 GM-CSF release (CTL clone 4 (TRP-2) [1]; T cells alone subtracted): <50

Sequence: LGPGRPYR
- CTL clone 4 GM-CSF release (CTL clone 4 (TRP-2) [1]; T cells alone subtracted): <50

Sequence: LLGPGAPYR
- CTL clone 4 GM-CSF release (CTL clone 4 (TRP-2) [1]; T cells alone subtracted): <50

Sequence: RDTLLGPGR [TRP194–202, synthetic TRP-2 peptide]
- GSM-CSF release CTL clone 1 (TRP-1) (CTL clone 1 (TRP-1) [2]; [6]): < 50 pg/mL
- GSM-CSF release CTL clone 4 (TRP-2) (CTL clone 4 (TRP-2) [1]; [6]): < 50 pg/mL

Sequence: GPAFVTWHR [TRP213–221, synthetic TRP-2 peptide]
- GSM-CSF release CTL clone 1 (TRP-1) (CTL clone 1 (TRP-1) [2]; [6]): < 50 pg/mL
- GSM-CSF release CTL clone 4 (TRP-2) (CTL clone 4 (TRP-2) [1]; [6]): < 50 pg/mL

Sequence: LLGPGIPYR
- CTL clone 4 GM-CSF release (CTL clone 4 (TRP-2) [1]; T cells alone subtracted): <50

Sequence: LLGPGRPYR [TRP197–205, 9mer antigenic peptide of TRP-2, amino acids 197–205]
- GSM-CSF release CTL clone 1 (TRP-1) (CTL clone 1 (TRP-1) [2]; [6]): < 50 pg/mL
- GSM-CSF release CTL clone 1 (TRP-1) (CTL clone 1 (TRP-1) [2]; [7]): < 50 pg/mL
- peptide concentration at which lysis of target cells by CTL clone 4 was detected (CTL clone 4; [8]): 1 nM
- peptide concentration of maximum lysis (CTL clone 4; [8]): 100 nM
- lysis of peptide-pulsed 586EBV B cells by CTL clone 4 (in words) (CTL clone 4): capable of lysing
- GSM-CSF release CTL clone 4 (TRP-2) (CTL clone 4 (TRP-2) [3]): > 4000 pg/mL
- GSM-CSF release CTL clone 4 (TRP-2) (CTL clone 4 (TRP-2) [1]; [6]): > 4000 pg/mL
- CTL clone 4 GM-CSF release (CTL clone 4 (TRP-2) [1]; T cells alone subtracted): 3450
- GSM-CSF release CTL clone 4 (TRP-2) (CTL clone 4 (TRP-2) [1]; [7]): < 50 pg/mL
- recognition by CTL clone 4 / stimulation of cytokine release (in words) (CTL clone 4 (TRP-2) [1]; [5]): strongly recognized; also recorded: most efficiently stimulated cytokine release from T cells
- peptide concentration at which stimulation of GM-CSF release reached a plateau (CTL clone 4 (TRP-2) [1]; [9]): 500 nM
- peptide concentration sufficient to stimulate GM-CSF release from T cell clone 4 (CTL clone 4 (TRP-2) [1]; [9]): 1 nM
- GSM-CSF release CTL clone 1 (TRP-1) (CTL clone 1 (TRP-1) [4]): < 50 pg/mL

Sequence: LSGPGRPYR
- CTL clone 4 GM-CSF release (CTL clone 4 (TRP-2) [1]; T cells alone subtracted): 3300

Sequence: LLLPGRPYR
- CTL clone 4 GM-CSF release (CTL clone 4 (TRP-2) [1]; T cells alone subtracted): <50
